These results are taken from patent US12337000B2, “Therapeutic modulators of the reverse mode of ATP synthase” (priority 2017, dated 2025).

For one series, the target named is T1, F1F0 ATP hydrolase (Bos taurus, UniProt P00829+P19483).
T1 construct: from tissue; host or cells: sub-mitochondrial particles (SMPs)
The conditions noted are these: cited from earlier work.

For series [1] the following is noted: cited from earlier work.
For series [2] the following is noted: cited from earlier work. This is another data set of the same source.
In series [3] the test system is 59 cancer cell lines (NCI-60). Briefly: NCI-60 one-dose in vitro assay. Format: cell-based, human. The source says:
FIGS. 1, 2, 3, 4, 5, 6, 7, 8 show results from the NCI-60 one-dose in vitro assay at the Developmental Therapeutics Program (DTP), at the National Cancer Institute (NCI, Bethesda, MD, USA). Its protocol is well known to those of the art, and it tests the effect, if any, of a test compound on the growth/survivability of a cancer cell line as compared to the no compound control. […] However, a constant is that there is always representative cell lines from leukemia, melanoma and cancers of the lung, colon, brain, ovary, breast, prostate and kidney. In a one-dose NCI compound test report, NCI report a number for each cell line, which they call “Growth Percent”, which is its growth relative to the no-compound control, and relative to the time zero number of cells. This reported parameter allows detection of both growth inhibition (values between 0 and 100) and lethality (values less than 0). For example, an NCI “Growth Percent” value of 100 means no growth inhibition. Value of 40 means 60% growth inhibition. Value of 0 means no net growth over the course of the experiment. Value of −40 means 60% lethality. Value of −100 means all cells are dead. I don't present NCI one-dose data in this original format. Instead, if the NCI “Growth Percent” value for a cell is positive, it is manipulated: [100 minus this original NCI-60 “Growth Percent” data point], to yield the percentage “Growth Inhibition”. If the original NCI “Growth Percent” value for a cell is negative, it is made positive to be the percentage of original cancer cells (at time zero) killed: “Percentage Killed” {and in these cases, of course, all growth has been inhibited, so percentage “Growth Inhibition” is then specified to be 100% for this cancer cell line}. In my one-dose figures, “Growth Inhibition” (0-100%) is presented on the x-axis and, if applicable, “Percentage Killed” (0-100%) further along on the x-axis. The latter is applicable when there is not just cancer growth inhibition but a reduction in the number of cancer cells from the start time i.e. when the compound is not merely slowing cancer growth, but is actively reducing the number of cancer cells from the starting number. In cases where there is only growth inhibition, only “Growth inhibition” is presented on the x-axis.
NCI-60 tests are performed at a controlled temperature of 37° C..
To perform the anti-cancer testing reported: BMS-199264 hydrochloride was purchased from Sigma-Aldrich. BTB06584 was purchased from AdooQ Bioscience, Irvine, CA, USA. Compounds 19a (separated into 6a and 6b stereoisomers) and 31 were synthesized by reaction schemes disclosed herein. Almitrine dimesylate was purchased from Ak Scientific, Palo Alto, CA, USA.

A further series concerns the target T2, F1F0-ATP hydrolysis (Homo sapiens, UniProt P06576+P25705).
T2 construct: BTB06584 potency information (is not an EC50) is from a whole cell study [13]; endogenous in cells
To be noted: cited from earlier work.

[4] abbreviates: from [8], Formula (II), read-out: EC50 F1F0 ATP hydrolase.

Molecules are shown by their SMILES. Entries after “also recorded” stand apart in the source; their conditions may differ. Structures can show the parent of a compound that is named as a salt. Where two headings read alike, the source gives them in different places.

In the case of `O=S(=O)(c1cccc2cccnc12)N1Cc2ccccc2N(Cc2c[nH]cn2)C(CCc2ccccc2)C1` (centres unmarked) [Quinolin-8-yl, SO2,5-yl], at F1F0 ATP hydrolase (setting [4]), the EC50 was 2.93 µM.

Consider `COc1ccc(S(=O)(=O)N2Cc3ccccc3N(Cc3c[nH]cn3)C(CCc3ccccc3)C2)cc1` (centres unmarked) [4-OMe—Ph, SO2,5-yl], for which the EC50 at F1F0 ATP hydrolase (setting [4]) is 0.077 µM.

With `O=S(=O)(c1cccc2nonc12)N1Cc2ccccc2N(Cc2cnc[nH]2)C(CCc2ccccc2)C1` (centres unmarked) [Benzofurazan-7-yl, SO2,5-yl], the EC50 at F1F0 ATP hydrolase (setting [4]) was 1.78 µM.

For the compound `CC(C)(C)c1ccc(S(=O)(=O)N2Cc3ccccc3N(Cc3ncc[nH]3)C(CCc3ccccc3)C2)cc1` (centres unmarked) [4-t-Bu—Ph, SO2,2-yl], at F1F0 ATP hydrolase (setting [4]), the EC50 was more than 10 µM.

Turning to `CN(C)CCCN1c2ccccc2CCc2ccc(Cl)cc21` [clomipramine HCl], the “LD50 {mouse, IV}” value in series [1] (mouse, in vivo, iv) is 22 mg/kg.

As for `O=S(=O)(c1cc(Cl)ccc1Cl)N1Cc2ccccc2N(Cc2cnc[nH]2)C(CCc2ccccc2)C1` (centres unmarked) [2,5-di-Cl—Ph, SO2,5-yl], the EC50 on F1F0 ATP hydrolase (setting [4]) is 0.158 µM.

Turning to `N.N.O=C([O-])C1(C(=O)[O-])CCC1.[Pt+2]` [carboplatin], the LD50 in series [1] (mice, intraperitoneal injection (IP)) is 118 mg/kg.

Regarding `CC[C@H]1/C=C/C=C/C[C@@H](C)[C@H](O)[C@@](C)(O)C(=O)[C@@H](C)[C@H](O)[C@@H](C)C(=O)[C@@H](C)[C@H](O)[C@@H](C)/C=C/C(=O)O[C@@H]2[C@H](C)[C@H](CC1)O[C@]1(CC[C@H](C)[C@H](C[C@@H](C)O)O1)[C@H]2C` [oligomycin], the “time within which healthy rats are killed” value in series [2] (1 mg/kg intraperitoneal, n=10 [15]) is not above 48 h. In addition, the LD33 in series [2] (healthy rats, intraperitoneal injection [15]) is on record as 0.5 mg/kg.

As for `O=S(=O)(c1ccc(F)cc1)N1Cc2ccccc2N(Cc2c[nH]cn2)C(CCc2ccccc2)C1` (centres unmarked) [4-F—Ph, SO2,5-yl], the EC50 on F1F0 ATP hydrolase (setting [4]) is 0.221 µM.

Regarding `Cc1nc[nH]c1CN1c2ccccc2CN(S(=O)(=O)c2ccc(F)cc2)CC1CCc1ccccc1` (centres unmarked) [4-F—Ph, SO2,4-Me-5-yl], the EC50 at F1F0 ATP hydrolase (setting [4]) was 0.151 µM.

Consider `O=C(Oc1cc(S(=O)(=O)c2ccccc2)ccc1[N+](=O)O)c1ccc(Cl)cc1` [BTB06584], for which the “anti-cancer activity (in words)” value is “none and No anti-cancer activity” in series [3] (10 μM); “observed; also recorded: Anti-cancer activity” in series [3] (100 μM). In addition, on F1F0-ATP hydrolysis (10 μM [13]), the “inhibitory potency for F1F0-ATP hydrolysis (in words)” value is given as “none”. Moreover, the “concentration required to inhibit F1F0-ATP hydrolysis” value at F1F0-ATP hydrolysis (whole cell study [13], not an EC50) was more than 100 µM.

Consider `N#Cc1ccc(S(=O)(=O)N2Cc3ccccc3N(Cc3c[nH]cn3)C(CCc3ccccc3)C2)c(Cl)c1` (centres unmarked) [2-Cl-4-CN—Ph, SO2,5-yl], for which, at F1F0 ATP hydrolase (setting [4]), the EC50 is 0.939 µM.

Turning to `N#CN=C(Nc1ccccc1Cl)NC(Cn1ccnc1)c1ccc(Cl)cc1Cl` (centres unmarked) [2-Cl, CN], the EC50 on F1F0 ATP hydrolase (Further Examples [5], Formula (I), read-out: EC50 F1F0 ATP hydrolase) is 2.23 µM.

For the compound `O=S(=O)(c1cccs1)N1Cc2ccccc2N(Cc2cnc[nH]2)C(CCc2ccccc2)C1` (centres unmarked) [Thiophen-2-yl, SO2,5-yl], on F1F0 ATP hydrolase (setting [4]), the EC50 was 0.636 µM.

For `Cc1nc[nH]c1CN1c2ccccc2CN(Cc2ccc(C(C)(C)C)cc2)CC1CCc1ccccc1` (centres unmarked) [4-t-Bu—Ph, CH2,4-Me-5-yl], the EC50 at F1F0 ATP hydrolase (setting [4]) is 2.35 µM.

For the compound `O=S(=O)(c1cccc2ccccc12)N1Cc2ccccc2N(Cc2cnc[nH]2)C(CCc2ccccc2)C1` (centres unmarked) [Naphth-1-y1, SO2,5-yl], the EC50 on F1F0 ATP hydrolase (setting [4]) is 0.338 µM.

Take `O=S(=O)(c1ccc(O)cc1)N1Cc2ccccc2N(Cc2cnc[nH]2)C(CCc2ccccc2)C1` (centres unmarked) [4-OH—Ph, SO2,5-yl]: on F1F0 ATP hydrolase (setting [4]), the EC50 was 0.667 µM.

On to `O=S(=O)(Cc1ccccc1)N1Cc2ccccc2N(Cc2c[nH]cn2)C(CCc2ccccc2)C1` (centres unmarked) [Bn, SO2,5-yl], for which the EC50 at F1F0 ATP hydrolase (setting [4]) was 2.41 µM.

For the compound `CC(C)(C)c1ccc(S(=O)(=O)N2Cc3ccccc3N(Cc3c[nH]cn3)C(CCc3ccccc3)C2)cc1` (centres unmarked) [4-t-Bu—Ph, SO2,5-yl], the EC50 at F1F0 ATP hydrolase (setting [4]) was 0.008 µM.

On to `Cc1nc(CN2c3ccccc3CN(S(=O)(=O)c3ccc(F)cc3)CC2CCc2ccccc2)c[nH]1` (centres unmarked) [4-F—Ph, SO2,2-Me-5-yl], for which the EC50 on F1F0 ATP hydrolase (setting [4]) is 9.62 µM.

For `N#Cc1ccc(S(=O)(=O)N2Cc3ccccc3N(Cc3cnc[nH]3)C(CCc3ccccc3)C2)cc1` (centres unmarked) [4-CN—Ph, SO2,5-yl], the EC50 on F1F0 ATP hydrolase (setting [4]) was 0.255 µM.

On to `O=S(=O)(c1ccccc1)N1Cc2ccccc2N(Cc2cnc[nH]2)C(CCc2ccccc2)C1` (centres unmarked) [Ph, SO2,5-yl], for which the EC50 at F1F0 ATP hydrolase (setting [4]) was 0.282 µM.

On to `O=[N+]([O-])c1cccc(S(=O)(=O)N2Cc3ccccc3N(Cc3cnc[nH]3)C(CCc3ccccc3)C2)c1` (centres unmarked) [3-NO2—Ph, SO2,5-yl], for which, on F1F0 ATP hydrolase (setting [4]), the EC50 was 0.423 µM.

As to `O=S(=O)(N1Cc2ccccc2N(Cc2c[nH]cn2)C(CCc2ccccc2)C1)C(F)(F)F` (centres unmarked) [CF3, SO2,5-yl], the EC50 on F1F0 ATP hydrolase (setting [4]) was 0.077 µM.

In the case of `N#Cc1cccc(C(=O)/N=C(\Nc2ccc(Cl)cc2)NC(Cn2ccnc2)c2ccc(Cl)cc2Cl)c1` (centres unmarked) [Compound 19a], the EC50 at F1F0 ATP hydrolase (SMP studies in [5-8], read-out: EC50 F1F0 ATP hydrolysis / hydrolase) is 0.033 µM.

For `CC(C)(C)c1ccc(CN2Cc3ccccc3N(Cc3cnc[nH]3)C(CCc3ccccc3)C2)cc1` (centres unmarked) [4-t-Bu—Ph, CH2,5-yl], at F1F0 ATP hydrolase (setting [4]), the EC50 is 2.14 µM.

For the compound `CC1(C)Oc2ccc(S(=O)(=O)N3CCCCC3)cc2[C@@H](N(Cc2ncc[nH]2)c2ccc(Cl)cc2)[C@@H]1O.Cl` [BMS-199264 hydrochloride], the “anti-cancer activity (in words)” value in series [3] (10 μM) and in series [3] (100 μM) was “Anti-cancer activity” throughout.

By LD50 is commonly meant the dose at which mortality reaches 50%.
